From patent publication US10196403B2, “Compounds and compositions and uses thereof” (Sunovion Pharmaceuticals Inc., priority 2016, dated 2019)
Like-named read-outs stand apart in the source and are kept apart here.

System: mice
Test: Neuropharmacological Assay (SmartCube)
Format: in vivo
Conditions: for minimal effective dose: Mus musculus, read-out: POTENCY (minimal effective dose, MED); for AD: ADHD (SmartCube probability) / AG: analgesic (SmartCube probability) / AX: anxiolytic (SmartCube probability) / CE: cognitive enhancer (SmartCube probability) / DP: anti-depressant (SmartCube probability) / MS: mood stabilizer (SmartCube probability) / PS: anti-psychotic (SmartCube probability) / SD: sedative hypnotic (SmartCube probability) / UN: uncharacterized CNS activity (SmartCube probability): mice, i.p. 15 min before test, most efficacious dose(s) of 3 doses
Method in brief: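 Behavior of treated mice captured by digital video and matched algorithmically against reference drug classes, yielding a class probability at the most efficacious of 3 i.p. doses (15 min pretreatment, NMP/PEG/propylene glycol vehicle). Potency given as MED, the mpk dose reaching ≥50% total activity across usually 0.3–30 mpk.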

[1] = MED = dose having 50% or more total activity in SmartCube

| SMILES | minimal effective dose [1] [mg/kg] | AD: ADHD (SmartCube probability) | AG: analgesic (SmartCube probability) | AX: anxiolytic (SmartCube probability) | CE: cognitive enhancer (SmartCube probability) | DP: anti-depressant (SmartCube probability) | MS: mood stabilizer (SmartCube probability) | PS: anti-psychotic (SmartCube probability) | SD: sedative hypnotic (SmartCube probability) | UN: uncharacterized CNS activity (SmartCube probability) | minimal effective dose [mg/kg] |
| --- | --- | --- | --- | --- | --- | --- | --- | --- | --- | --- | --- |
| CNC[C@H]1OCc2c(Cl)cccc21 [Example 92, (S)-1-(4-chloro-1,3-dihydroisobenzofuran-1-yl)-N-methylmethanamine] | 10 to 30 | + (LOQ≤ + <5%) | ++ (5%≤ ++ <25%) | ++ (5%≤ ++ <25%) | ++ (5%≤ ++ <25%) | ++ (5%≤ ++ <25%) | + (LOQ≤ + <5%) | + (LOQ≤ + <5%) | ++ (5%≤ ++ <25%) | +++ (25%≤ +++ <50%) |  |
| CNC[C@@H]1OCc2c(Cl)cccc21 [Example 93, (R)-1-(4-chloro-1,3-dihydroisobenzofuran-1-yl)-N-methyl-methanamine] | < 3 | +++ (25%≤ +++ <50%) | ++ (5%≤ ++ <25%) | +++ (25%≤ +++ <50%) | ++ (5%≤ ++ <25%) | ++ (5%≤ ++ <25%) | + (LOQ≤ + <5%) | + (LOQ≤ + <5%) | ++ (5%≤ ++ <25%) | ++++ (50%≤ ++++) |  |
| Fc1cccc2c1[C@@H](CNC1CCC1)OCC2 [Example 96, (S)-N-((8-fluoroisochroman-1-yl)methyl)cyclobutanamine] |  | + (LOQ≤ + <5%) | + (LOQ≤ + <5%) | + (LOQ≤ + <5%) | + (LOQ≤ + <5%) | + (LOQ≤ + <5%) | + (LOQ≤ + <5%) | + (LOQ≤ + <5%) | +++ (25%≤ +++ <50%) | + (LOQ≤ + <5%) | 10 to 30 |
| Fc1cccc2c1[C@H](CNC1CCC1)OCC2 [Example 97, (R)-N-((8-fluoroisochroman-1-yl)methyl)cyclobutanamine] |  | ++ (5%≤ ++ <25%) | + (LOQ≤ + <5%) | ++ (5%≤ ++ <25%) | + (LOQ≤ + <5%) | +++ (25%≤ +++ <50%) | + (LOQ≤ + <5%) | ++ (5%≤ ++ <25%) | + (LOQ≤ + <5%) | +++ (25%≤ +++ <50%) | 3 to 10 |
| CNC[C@H]1OC[C@@H](O)c2cccc(F)c21 [Example 98, (1S,4S)-8-fluoro-1-((methylamino)methyl)isochroman-4-ol] | > 30 | + (LOQ≤ + <5%) | + (LOQ≤ + <5%) | + (LOQ≤ + <5%) | + (LOQ≤ + <5%) | + (LOQ≤ + <5%) | + (LOQ≤ + <5%) | + (LOQ≤ + <5%) | + (LOQ≤ + <5%) | + (LOQ≤ + <5%) |  |
| CNC[C@@H]1OC[C@H](O)c2cccc(F)c21 [Example 99, (1R,4R)-8-fluoro-1-((methylamino)methyl)isochroman-4-ol] | 10 to 30 | + (LOQ≤ + <5%) | + (LOQ≤ + <5%) | ++ (5%≤ ++ <25%) | + (LOQ≤ + <5%) | + (LOQ≤ + <5%) | + (LOQ≤ + <5%) | ++ (5%≤ ++ <25%) | ++ (5%≤ ++ <25%) | +++ (25%≤ +++ <50%) |  |
